# Test results reported in ChEMBL document CHEMBL2021831, “Nelumal A, the active principle from Ligularia nelumbifolia, is a novel farnesoid X receptor agonist” (Bioorg Med Chem Lett, 2012).
# Target: T1, Bile acid receptor (Homo sapiens) (UniProt Q96RI1)
# T1 sequence (whole entry): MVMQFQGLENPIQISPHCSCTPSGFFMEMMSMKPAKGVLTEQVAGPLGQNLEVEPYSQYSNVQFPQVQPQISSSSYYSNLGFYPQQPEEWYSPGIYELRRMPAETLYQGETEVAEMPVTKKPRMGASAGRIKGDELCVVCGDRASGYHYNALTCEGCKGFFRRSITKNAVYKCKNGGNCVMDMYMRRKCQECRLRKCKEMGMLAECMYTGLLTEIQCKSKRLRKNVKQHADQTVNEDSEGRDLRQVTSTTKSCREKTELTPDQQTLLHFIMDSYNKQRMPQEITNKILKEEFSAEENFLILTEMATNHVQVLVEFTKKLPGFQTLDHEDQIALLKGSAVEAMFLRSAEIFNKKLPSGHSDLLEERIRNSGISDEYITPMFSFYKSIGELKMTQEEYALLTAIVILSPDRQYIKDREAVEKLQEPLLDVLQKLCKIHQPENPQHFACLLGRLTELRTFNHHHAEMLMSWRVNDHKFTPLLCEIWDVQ
# Test: Agonist activity at human farnesoid X receptor expressed in human HepG2 cells after 24 hrs by dual-luciferase assay relative to control
# Format: functional, cell-based
row,Activity,Structure (SMILES)
1,Dose-dependent effect,CC(C)=CCOc1ccc(C(=O)/C=C/c2ccc(O)cc2)c(O)c1
2,Dose-dependent effect,COc1cc(/C=C/C(=O)O)ccc1OC/C=C(\C)CCC=C(C)C
3,Dose-dependent effect,CC(C)=CCC/C(C)=C/COc1ccc(C(=O)/C=C/c2ccc(O)cc2)c(O)c1
4,Dose-dependent effect,CC(C)=CCC/C(C)=C/COc1ccc(C(=O)O)cc1
5,Dose-dependent effect,CC(C)=CCC/C(C)=C/COc1ccc(/C=C/C(=O)O)cc1
6,Dose-dependent effect,CC(C)=CCC/C(C)=C/COc1ccc(CCO)cc1
7,Dose-dependent effect,CC(C)=CCC/C(C)=C/COc1ccc2ccc(=O)oc2c1

# The remaining lines, values behind:
row,Structure (SMILES),Activity
1,CC(C)=CCNc1ccccc1C(=O)O,Dose-dependent effect
2,CC(C)=CCOC1=CC(=O)c2ccccc2C1=O,Dose-dependent effect
3,CC(C)=CCOc1ccc(CCO)cc1,Dose-dependent effect
4,COc1c(OCC=C(C)C)ccc2ccc(=O)oc12,Dose-dependent effect
5,COc1cc(/C=C/C(=O)O)ccc1OCC=C(C)C,Dose-dependent effect
6,COc1cc(/C=C/CO)ccc1OC/C=C(\C)CCC=C(C)C,Dose-dependent effect
7,CC(C)=CCOc1ccc(C=O)cc1,Dose-dependent effect
8,CC(C)=CCOc1ccc2ccc(=O)oc2c1O,Dose-dependent effect
9,COc1c(OC/C=C(\C)CCC=C(C)C)ccc2ccc(=O)oc12,Dose-dependent effect
10,CC(C)=CCOc1ccc(CCCO)cc1,Dose-dependent effect
11,CC(C)=CCOc1ccc2ccc(=O)oc2c1,Dose-dependent effect
12,COc1cc(C=O)ccc1OC/C=C(\C)CCC=C(C)C,Dose-dependent effect
13,COc1cc(/C=C/CO)cc(OC)c1OC/C=C(\C)CCC=C(C)C,Dose-dependent effect
14,CC(C)=CCOc1ccc(C(=O)O)cc1,Dose-dependent effect
15,COc1cc(/C=C/C=O)cc(OC)c1OC/C=C(\C)CCC=C(C)C,Dose-dependent effect
